Laboratory results as given in patent US10940188B2, “Compounds and methods for treatment and prevention of Flavivirus infection” (priority 2016, dated 2021).
Counter-ions that a name gives are not always drawn.

These compounds were tested on ZIKV-induced cell death in human astrocytes (assay: ATP cell viability assay for ZIKV-induced cell death, human astrocytes). Conditions: Astrocyte; ZIKV-infected human astrocytes; read-out: Cell viability (IC50, uM) Astrocyte.
Format: cell-based

`CC(=O)Oc1ccccc1C(=O)Nc1ncc([N+](=O)[O-])s1` [Nitazoxanide] showed an IC50 of 31.6 µM.

Same assay, conditions: ZIKV-infected human astrocytes

In order of falling “Cell viability (efficacy, %) Astrocyte” value:
1. CC(=O)Oc1ccccc1C(=O)Nc1ncc([N+](=O)[O-])s1 [Nitazoxanide]  53.6%
2. O=c1c2ccccc2nc2n1CCc1c-2[nH]c2ccccc12 [Rutaecarpine]  0.0%
3. O=c1c2ccccc2[se]n1-c1ccccc1 [Ebselen]  0.0%
4. O=C(/C=C/c1ccc(O)cc1)c1ccc(O)cc1O [Isoliquiritigenin]  0.0%
5. O=c1cc(-c2ccccc2)oc2cc(O)c(O)c(O)c12 [Baicalein]  0.0%
6. Nc1ccc(/N=N/c2ccccc2)c(N)n1 [Phenazopyridine hydrochloride]  0.0%

Each compound was assayed on ZIKV-induced caspase 3/7 activity in human astrocytes (assay: Caspase 3/7 activity assay, ZIKV-infected human astrocytes). Conditions: Astrocyte; ZIKV-infected human astrocytes; read-out: Caspase 3 (IC50, uM) Astrocyte.
Format: cell-based
Protocol: (§1) Caspase-Glo 3/7 assay kit (catalog number G8092; Promega, Madison, Wis.) was used to detect caspase 3/7 activity. Reagents were reconstituted as described in the protocol from the manufacturer. Polystyrene plates (384-well and 1536-well; regular tissue culture treated and PDL coated) were purchased from Greiner Bio-One (Monroe, N.C.). Cells were seeded in 384- and 1536-well assay plates and cultured at 37° C. with 5% CO2 for 16 hours. ZIKV solution was added to cells, followed by incubation at 37° C. with 5% CO2 for 6 hours. Caspase-Glo 3/7 was added to each well, unless otherwise specified, and incubated at room temperature for 30 minutes. The luminescence intensity of the assay plates was measured using a ViewLux plate reader (PerkinElmer). Data were normalized by using the cell-containing wells without ZIKV as a negative control (0% induction of caspase 3/7 activity) and wells containing ZIKV infected cells that induced caspase 3/7 activity were used as a positive control (100% induction of caspase 3/7 activity). […]
(§2) Caspase-Glo 3/7 assay kit (Promega) was used to detect caspase 3/7 activity. Reagents were reconstituted as described in the protocol from the manufacturer. Cells were seeded in 384- and 1536-well assay plates and cultured at 37° C. with 5% CO2 for 16 hours. ZIKV solution was added to cells, followed by incubation at 37° C. with 5% CO2 for 6 hours. Caspase-Glo 3/7 was added to each well at a 1:1 ratio, unless otherwise specified, and incubated at room temperature for 30 minutes. The luminescence intensity of the assay plates was measured using a ViewLux plate reader (PerkinElmer). Data was normalized by using the cell-containing wells without ZIKV as a negative (0% induction of caspase 3/7 activity) control and wells containing ZIKV infected cells that induced caspase 3/7 activity were used as a positive control (100% induction of caspase 3/7 activity). […]

In order of falling IC50:
1. Nc1ccc(/N=N/c2ccccc2)c(N)n1 [Phenazopyridine hydrochloride]  15.5 µM
2. O=c1c2ccccc2[se]n1-c1ccccc1 [Ebselen]  8.2 µM
3. O=c1c2ccccc2nc2n1CCc1c-2[nH]c2ccccc12 [Rutaecarpine]  4.89 µM
4. O=C(/C=C/c1ccc(O)cc1)c1ccc(O)cc1O [Isoliquiritigenin]  3.08 µM
5. CC(=O)Oc1ccccc1C(=O)Nc1ncc([N+](=O)[O-])s1 [Nitazoxanide]  2 µM

Same assay, conditions: Astrocyte; ZIKV-infected human astrocytes; read-out: Caspase 3 (efficacy, %) Astrocyte

In order of falling Emax:
1. O=C(/C=C/c1ccc(O)cc1)c1ccc(O)cc1O [Isoliquiritigenin]  95.1%
2. O=c1c2ccccc2[se]n1-c1ccccc1 [Ebselen]  93.8%
3. CC(=O)Oc1ccccc1C(=O)Nc1ncc([N+](=O)[O-])s1 [Nitazoxanide]  90.3%
4. O=c1c2ccccc2nc2n1CCc1c-2[nH]c2ccccc12 [Rutaecarpine]  89.5%
5. Nc1ccc(/N=N/c2ccccc2)c(N)n1 [Phenazopyridine hydrochloride]  69.9%
6. O=c1cc(-c2ccccc2)oc2cc(O)c(O)c(O)c12 [Baicalein]  0%

The compounds below were run on ZIKV-induced caspase 3/7 activity in SNB-19 cells (assay: Caspase 3/7 activity assay, ZIKV-infected SNB-19 cells). Conditions: Homo sapiens; ZIKV-infected SNB-19 cells; read-out: Caspase 3 (IC50, uM) SNB-19.
Format: cell-based
Protocol: as §1, §2

In order of rising IC50:
1. O=C(/C=C/c1ccc(O)cc1)c1ccc(O)cc1O [Isoliquiritigenin]  2.18 µM
2. CC(=O)Oc1ccccc1C(=O)Nc1ncc([N+](=O)[O-])s1 [Nitazoxanide]  2.24 µM
3. O=c1c2ccccc2nc2n1CCc1c-2[nH]c2ccccc12 [Rutaecarpine]  5.18 µM
4. Nc1ccc(/N=N/c2ccccc2)c(N)n1 [Phenazopyridine hydrochloride]  16.4 µM
5. O=c1c2ccccc2[se]n1-c1ccccc1 [Ebselen]  17.3 µM
6. O=c1cc(-c2ccccc2)oc2cc(O)c(O)c(O)c12 [Baicalein]  29.1 µM

Same assay, conditions: Homo sapiens; ZIKV-infected SNB-19 cells; read-out: Caspase 3 (efficacy, %) SNB-19

In order of rising Emax:
1. O=c1cc(-c2ccccc2)oc2cc(O)c(O)c(O)c12 [Baicalein]  50.6%
2. Nc1ccc(/N=N/c2ccccc2)c(N)n1 [Phenazopyridine hydrochloride]  73.7%
3. O=c1c2ccccc2nc2n1CCc1c-2[nH]c2ccccc12 [Rutaecarpine]  86.4%
4. CC(=O)Oc1ccccc1C(=O)Nc1ncc([N+](=O)[O-])s1 [Nitazoxanide]  86.4%
5. O=C(/C=C/c1ccc(O)cc1)c1ccc(O)cc1O [Isoliquiritigenin]  96.9%
6. O=c1c2ccccc2[se]n1-c1ccccc1 [Ebselen]  117%

Each compound was assayed on ZIKV-induced cell death in SNB-19 cells (assay: ATP cell viability assay for ZIKV-induced cell death, SNB-19 cells). Conditions: Homo sapiens; ZIKV-infected SNB-19 cells; read-out: Cell viability (IC50, uM) SNB-19.
Format: cell-based, human
Protocol: (§3) The reagent was reconstituted and prepared as described by the manufacturer. In order to measure the cell death caused by ZIKV infection, cells were cultured for 16 hours at 37° C. with 5% CO2 in assay plates, followed by the addition of ZIKV solution and incubation at 37° C. with 5% CO2 for 72 hours. ATPlite, the ATP monitoring reagent, was then added to the assay plates and they were incubated for 15 minutes. The resulting luminescence was measured using the ViewLux plate reader (Perkin Elmer). Data were normalized using the wells without cells as a control for 100% cell killing, and cell-containing wells without ZIKV infection were used as full cell viability (0% cell killing). […]
as §3, with “The ATPlite luminescence assay system assay kit (PerkinElmer) was used to determine cell viability. The reagent” for “The reagent”, “by the manufacture. In order” for “by the manufacturer. In order”, “followed by addition of” for “followed by the addition of”, “plates and incubated for” for “plates and they were incubated for”, “Elmer). Data was normalized using” for “Elmer). Data were normalized using”

In order of rising IC50:
1. O=C(/C=C/c1ccc(O)cc1)c1ccc(O)cc1O [Isoliquiritigenin]  3.08 µM
2. CC(=O)Oc1ccccc1C(=O)Nc1ncc([N+](=O)[O-])s1 [Nitazoxanide]  23.7 µM
3. Nc1ccc(/N=N/c2ccccc2)c(N)n1 [Phenazopyridine hydrochloride]  27.5 µM

Same assay, conditions: ZIKV-infected SNB-19 cells

In order of rising “Cell viability (efficacy, %) SNB-19” value:
1. O=c1c2ccccc2nc2n1CCc1c-2[nH]c2ccccc12 [Rutaecarpine]  0.0%
2. O=c1c2ccccc2[se]n1-c1ccccc1 [Ebselen]  0.0%
3. O=c1cc(-c2ccccc2)oc2cc(O)c(O)c(O)c12 [Baicalein]  0.0%
4. Nc1ccc(/N=N/c2ccccc2)c(N)n1 [Phenazopyridine hydrochloride]  35.3%
5. O=C(/C=C/c1ccc(O)cc1)c1ccc(O)cc1O [Isoliquiritigenin]  36.3%
6. CC(=O)Oc1ccccc1C(=O)Nc1ncc([N+](=O)[O-])s1 [Nitazoxanide]  62.1%

Each compound was assayed on ZIKV-induced caspase 3/7 activity in hNPCs (assay: Caspase 3/7 activity assay, ZIKV-infected hNPCs). Conditions: Homo sapiens; ZIKV-infected hNPCs; read-out: Caspase 3 (IC50, uM) NPCs.
Format: cell-based
Protocol: Caspase-Glo 3/7 assay kit (catalog number G8092; Promega, Madison, Wis.) was used to detect caspase 3/7 activity. Reagents were reconstituted as described in the protocol from the manufacturer. Polystyrene plates (384-well and 1536-well; regular tissue culture treated and PDL coated) were purchased from Greiner Bio-One (Monroe, N.C.). Cells were seeded in 384- and 1536-well assay plates and cultured at 37° C. with 5% CO2 for 16 hours. ZIKV solution was added to cells, followed by incubation at 37° C. with 5% CO2 for 6 hours. Caspase-Glo 3/7 was added to each well, unless otherwise specified, and incubated at room temperature for 30 minutes. The luminescence intensity of the assay plates was measured using a ViewLux plate reader (PerkinElmer). Data were normalized by using the cell-containing wells without ZIKV as a negative control (0% induction of caspase 3/7 activity) and wells containing ZIKV infected cells that induced caspase 3/7 activity were used as a positive control (100% induction of caspase 3/7 activity).
Human NPCs were seeded onto PDL coated 1536-well assay plates at 250 cells per 3 μl/well and incubated at 37° C. in 5% CO2 for 16 hours. Test compounds dissolved in DMSO were transferred to assay plates at a volume of 23 nl/well by an automated pintool workstation (Wako Automation, San Diego, Calif.). Compounds were incubated with cells for 30 minutes at 37° C. in 5% CO2, immediately followed by the addition of 2 μl/well of ZIKV. Incubation time of compound-treated cells with ZIKV varied based on assay format. Experiments measuring virus-induced caspase 3/7 activity required a 6 hour incubation of ZIKV in the presence compounds at 37° C. in 5% CO2. Following this incubation, 3.5 μl/well of caspase 3/7 reagent mixture was added to assay plates. The plates were incubated for 30 minutes at room temperature, and the resultant luminescence signal was measured using a ViewLux plate reader (Perkin Elmer). Experiments measuring virus-induced cell death required a 72-hour incubation of ZIKV in the presence of compounds at 37° C. in 5% CO2. Following this incubation, 3.5 μl/well of ATP content detection reagent was added to assay plates, incubated for 30 minutes at the room temperature, and the resultant luminescence signal was measured in a ViewLux plate reader.
Caspase-Glo 3/7 assay kit (Promega) was used to detect caspase 3/7 activity. Reagents were reconstituted as described in the protocol from the manufacturer. Cells were seeded in 384- and 1536-well assay plates and cultured at 37° C. with 5% CO2 for 16 hours. ZIKV solution was added to cells, followed by incubation at 37° C. with 5% CO2 for 6 hours. Caspase-Glo 3/7 was added to each well at a 1:1 ratio, unless otherwise specified, and incubated at room temperature for 30 minutes. The luminescence intensity of the assay plates was measured using a ViewLux plate reader (PerkinElmer). Data was normalized by using the cell-containing wells without ZIKV as a negative (0% induction of caspase 3/7 activity) control and wells containing ZIKV infected cells that induced caspase 3/7 activity were used as a positive control (100% induction of caspase 3/7 activity).
Human NPCs were seeded onto PDL coated 1536-well assay plates at 250 cells per 3 μl/well and incubated at 37° C. in 5% CO2 for 16 hours. Test compounds dissolved in DMSO were transferred to assay plates at a volume of 23 nl/well by an automated pintool workstation (Wako Automation, San Diego, Calif.). Compounds were incubated with cells for 30 minutes at 37° C. in 5% CO2, immediately followed by the addition of 2 μl/well of ZIKV. Incubation time of compound-treated cells with ZIKV varied based on assay format. Experiments measuring virus induced caspase 3/7 activity required a 6 hour incubation of ZIKV in the presence compounds at 37° C. in 5% CO2. […]

In order of falling IC50:
1. O=c1cc(-c2ccccc2)oc2cc(O)c(O)c(O)c12 [Baicalein]  18.4 µM
2. Nc1ccc(/N=N/c2ccccc2)c(N)n1 [Phenazopyridine hydrochloride]  11.6 µM
3. O=c1c2ccccc2[se]n1-c1ccccc1 [Ebselen]  8.2 µM
4. O=c1c2ccccc2nc2n1CCc1c-2[nH]c2ccccc12 [Rutaecarpine]  4.61 µM
5. O=C(/C=C/c1ccc(O)cc1)c1ccc(O)cc1O [Isoliquiritigenin]  1.84 µM
6. CC(=O)Oc1ccccc1C(=O)Nc1ncc([N+](=O)[O-])s1 [Nitazoxanide]  1.26 µM

Same assay, conditions: Homo sapiens; ZIKV-infected hNPCs; read-out: Caspase 3 (efficacy, %) NPCs

In order of falling Emax:
1. O=c1c2ccccc2[se]n1-c1ccccc1 [Ebselen]  109%
2. O=C(/C=C/c1ccc(O)cc1)c1ccc(O)cc1O [Isoliquiritigenin]  89%
3. O=c1c2ccccc2nc2n1CCc1c-2[nH]c2ccccc12 [Rutaecarpine]  87.5%
4. CC(=O)Oc1ccccc1C(=O)Nc1ncc([N+](=O)[O-])s1 [Nitazoxanide]  82.3%
5. Nc1ccc(/N=N/c2ccccc2)c(N)n1 [Phenazopyridine hydrochloride]  72.5%
6. O=c1cc(-c2ccccc2)oc2cc(O)c(O)c(O)c12 [Baicalein]  57.5%
